tested on: T1, GCaMP5-expressing T. gondii; design: species or system GCaMP5-expressing Toxoplasma gondii, extracellular; GCaMP5 fluorescence (cytosolic Ca2+) after 100 uM zaprinast in compound-pretreated extracellular parasites, background-subtracted, relative to zaprinast alone; settings: 100 uM zaprinast stimulation, 10 min pretreatment, mean of two replicates, 0.23 h, 10 µM
T1 construct: whole extracellular parasites expressing GCaMP5 Ca2+ sensor
Procedure: GCaMP5-expressing parasites were suspended in Ringer's solution at 4 × 10^7 parasites/ml, and 50 μl of parasites were applied to each well of a 96-well plate (Costar, catalog no. 3631). […] Parasites were then treated with 100 μM zaprinast or 0.1% DMSO as a vehicle control and incubated at 37 °C with 5% CO2 for an additional 4 min before measuring fluorescence with excitation and emission wavelengths of 485 and 525 nm, respectively, on a SpectraMax M3 (Molecular Devices). Basal fluorescence, measured from untreated parasites, was subtracted from all values, and results were expressed as -fold change from parasites treated only with zaprinast. Z′ factors were determined from (i) parasites treated with zaprinast versus untreated parasites and (ii) parasites treated with a final concentration of 1 μM Cpd2 or a vehicle control followed by zaprinast, using the formula, Z′ = 1 − 3(σp + σn)/(|μp − μn|), where σp and σn indicate S.D. values of positive and negative controls, and μp and μn indicate the means of positive and negative controls, respectively. […] We predicted that the zaprinast response measured in GCaMP5-expressing parasites could form the basis for a phenotypic screen. Such a screen would benefit from the known importance of Ca^2+ signaling in parasite biology along with the reported success rate of cell-based phenotypic assays. We designed a screen wherein extracellular GCaMP5-expressing parasites were pretreated with compounds for 10 min before stimulation with zaprinast, and parasite fluorescence was measured 4 min later. We expected that compounds that interfered with the zaprinast response would reduce fluorescence. We calculated a Z′-factor for this screen to determine its dynamic range and suitability to high throughput screening. To do so, we compared zaprinast-treated parasites to untreated parasites or those pretreated with the PKG inhibitor Compound 2 (Cpd2) ([55]). […] We obtained the compound libraries published kinase inhibitor sets PKIS1 ([57]) and PKIS2 (unpublished), from GlaxoSmithKline and applied our phenotypic screen to the 823 ATP mimetics represented in these collections (Fig. 2B and supplemental Table S1). The compounds were screened at a single 10 μM dose with two biological replicates.

| Compound | fold change in fluorescence relative to zaprinast alone |
| --- | --- |
| CCn1c(-c2nonc2N)nc2c(-c3ccccc3)ncc(OCCCN)c21 [GSK260205A] | 0.1513 |

same assay, conditions: 100 uM zaprinast stimulation; 10 min pretreatment; mean of two replicates; 0.23 h

| Compound | fold change in fluorescence relative to zaprinast alone |
| --- | --- |
| Nc1nc(-c2ccc3c(N)n[nH]c3c2)cc(N2CCCC2)n1 [GSK2227430A] | 1.158 |
| Clc1ccc(CNc2nccc(-c3cnn4ncccc34)n2)cc1 [GW781673X] | 0.7156 |
| O=C1Nc2ccccc2/C1=C/Nc1ccc(-n2cncn2)cc1 [GW301789X] | 1.111 |
| COc1ccc(-c2nn3ncccc3c2-c2ccnc(Nc3ccc4c(c3)OCCO4)n2)cc1 [GW827106X] | 0.9888 |
| CC(C)NCC(Cc1ccccc1)NC(=O)c1cc(Br)c(-c2ccnc3[nH]ccc23)s1 (stereo not shown) [GSK1383281A] | 1.049 |
| CC1=C(C(=O)Nc2ccc3[nH]ncc3c2)C(c2ccc3ccccc3c2)CC(=O)N1 (stereo not shown) [GSK270822A] | 1.167 |
| CC(=O)Nc1[nH]nc2ncc(-c3ccccc3)cc12 [SB-548492] | 1.137 |
| O=C1Nc2ccccc2/C1=C/Nc1ccc2[nH]c(=O)[nH]c2c1 [GW284408X] | 0.9722 |
| CNc1ncnc2[nH]ncc12 [SKF-18355] | 1.025 |
| CCc1ccc(Oc2nccc(-c3c(-c4ccc(F)cc4)ncn3C3CCNCC3)n2)cc1 [SB-242719] | 1.455 |
| Cc1ccc(CC(=O)N2CCc3cc(-c4cn(C)c5ncnc(N)c45)ccc32)cc1 [GSK2634758A] | 1.068 |
| COC(=O)Nc1nc2cc(Oc3ccc(NC(=O)Nc4cccc(C(=O)O)c4)cc3)ccc2[nH]1 [GW701427A] | 1.188 |
| N#Cc1c(NC(=O)c2ccccc2F)sc2c1CCCC2 [GW572738X] | 1.241 |
| Cc1cccc(Nc2nc(NCCN)ncc2C(N)=O)c1 [GSK1292139B] | 0.903 |
| [O-][S+]1CCN(Cc2ccc(-c3ccc4ncnc(Nc5ccc(OCc6ccccc6)c(Cl)c5)c4c3)o2)CC1 [GW583373A] | 0.2727 |
| O=C(Nc1ccccc1F)NC1CCN(c2ccnc(Nc3ccc(F)cc3)n2)C1 (stereo not shown) [GSK1379722A] | 0.7204 |
| Cc1ccc(C)c(NC(=O)Nc2ccc(C)c(-c3ccc(C(=O)Nc4ccncc4)cc3)c2)c1 [GSK1398473A] | 1.092 |
| O=C(O[C@H]1CN[C@H](C#Cc2cc3ncnc(Nc4ccc5c(cnn5Cc5ccccc5)c4)c3s2)C1)N1CCOCC1 [GSK200398A] | 1.169 |
| CN1C(=O)C(Nc2cc(Cl)c(O)c(Cl)c2)=C(c2ccc(Cl)cc2)C1=O [SB-404321] | 1.253 |
| NS(=O)(=O)c1ccc(N/C=C2\C(=O)Nc3ccc4ncsc4c32)cc1 [GW297361X] | 1.167 |
| O=C(Nc1n[nH]c2nc(-c3ccccc3)c(Br)cc12)C1CC1 [SB-708998] | 0.9523 |
| NCC(NC(=O)c1cc(-c2ccnc3[nH]ccc23)cs1)c1ccccc1 (stereo not shown) [GSK1229959A] | 0.7412 |
| Clc1cc(Cl)cc(Nc2ccnc(Nc3cc(Cl)cc(Cl)c3)n2)c1 [GSK175726A] | 0.5192 |
| C[C@@H](Oc1cc(-n2cnc3ccc(OCC4CCN(C)CC4)cc32)sc1C(N)=O)c1ccccc1Cl [GSK571989A] | 0.9822 |
| COc1ccc(Nc2nccc(N3CCC(NC(=O)C(C)c4ccc(Cl)cc4)CC3)n2)cc1 (stereo not shown) [GSK1379812A] | 1.185 |
| CC(=O)N1CCN(c2ccc(Nc3nccc(-c4sc(C(C)C)nc4-c4cccc(NS(=O)(=O)c5ccccc5)c4)n3)cn2)CC1 [GSK1645872A] | 0.8017 |
| COc1cc(Nc2nccc(Nc3ccc4c(C)n[nH]c4c3)n2)cc(OC)c1OC [GW612286X] | 0.875 |

| Compound | fold change in fluorescence relative to zaprinast alone |
| --- | --- |
| Cc1ccc(O)cc1Nc1ccnc2ccc(S(C)(=O)=O)cc12 [GW559768X] | 1.199 |
| NCC(NCc1ccc(-c2ccnc3[nH]ccc23)s1)c1ccccc1 (stereo not shown) [GSK1321565A] | 0.4604 |
| Cc1c(Cn2c3ccccc3n3c(=O)cc(N4CCOCC4)nc23)cccc1C(F)(F)F [GSK2306394A] | 0.7248 |
| COc1cc2ncn(-c3cc(OCc4ccccc4S(C)(=O)=O)c(C#N)s3)c2cc1OC [GSK319347A] | 1.184 |
| O=C(Nc1n[nH]c2nc(-c3ccco3)c(Br)cc12)C1CC1 [SB-739452] | 1.083 |
| FC(F)(F)c1ccccc1-c1cc(-c2cn[nH]c2-c2ccccn2)ccn1 [GW679396X] | 0.8259 |
| CN(C)c1ccc2c(c1)/C(=C/Nc1ccc(S(N)(=O)=O)cc1)C(=O)N2 [GW416469X] | 1.109 |
| CCOc1nccc2c1nc(-c1nonc1N)n2CC [SB-737198] | 0.8453 |
| NC(=O)c1cc(-c2ccc(F)cc2)cc(-c2ccncc2)c1N [GSK620503A] | 1.057 |
| Cc1nnc(-c2ccc(C)c(-c3ccc(C(=O)Nc4ccc(NS(C)(=O)=O)cc4)cc3)c2)o1 [GW702865X] | 1.258 |
| CN(c1ccc(NC(=O)N2CCN(CCCN3CCOCC3)CC2)cc1)c1ccnc(Nc2ccc(CS(C)(=O)=O)cc2)n1 [GW830899A] | 1.092 |
| Fc1ccc(-c2ncn(CCCN3CCOCC3)c2-c2ccccn2)cc1 [SB-211742] | 1.072 |
| CC(C)c1nc(-c2cccc(NS(=O)(=O)c3ccccc3)c2)c(-c2ccnc(Nc3ccc4c(c3)CN(C)CC4)n2)s1 [GSK1649598A] | 0.9359 |
| O=C(NCC1CC1)c1ccc(-c2cc(C(=O)NC3CC3)ccc2F)cc1 [GW810445X] | 1.232 |
| CS(=O)(=O)Nc1ccc(N/C=C2\C(=O)Nc3ccccc32)cc1 [GW278681X] | 1.254 |
| O=C(Nc1ccc(Oc2ccc3[nH]c(NC(=O)c4ccco4)nc3c2)cc1)Nc1cc(C(F)(F)F)ccc1F [GW683134A] | 1.019 |
| COc1cc(Nc2nccc(-c3c(-c4cccc(NC(=O)c5c(F)cccc5F)c4)nn4ncccc34)n2)cc(OC)c1OC [GSK327238A] | 1.28 |
| Cc1ccnc2ccc(-c3sc(N)nc3-c3ccccn3)nc12 [GW777257X] | 1.011 |
| Nc1nccc(-c2ccc3c(N)n[nH]c3c2)n1 [GSK1034945A] | 1.107 |
| [O-][S+]1CCN(Cc2ccc(-c3ccc4ncnc(Nc5ccc(OCc6ccccc6)c(F)c5)c4c3)o2)CC1 [GW576924A] | 0.1384 |
| Cc1ccc(NC(=O)c2cccc(C#N)c2)cc1-c1ccc(C(=O)Nc2ccncc2)cc1 [GSK1398463A] | 1.609 |
| Fc1ccc(-c2nn3c(OCC(F)(F)F)cccc3c2-c2ccncc2)cc1 [GW514784X] | 0.04564 |
| CNC(=O)c1cc(-c2ccc(F)cc2)cc(-c2ccc(S(=O)(=O)N3CCCC3)cc2)c1N [GSK635416A] | 1.111 |
| O=C1Nc2ccccc2C1=C1CCc2cc(O)ccc21 [GR105659X] | 1.22 |
| COc1ccc(Nc2nccc(N3CCC(NC(=O)c4cccc(NC(C)=O)c4)C3)n2)cc1 (stereo not shown) [GSK1379732A] | 1.077 |
| COc1cc2ncn(-c3cc(O[C@H](C)c4ccccc4Cl)c(C(N)=O)s3)c2cc1OC [GSK237701A] | 0.7907 |

same assay, conditions: 0.23 h, 10 µM

| Compound | % of control remaining |
| --- | --- |
| NS(=O)(=O)c1ccc(Nc2ncc(-c3ccccc3)o2)cc1 [GW572399X] | 1.225 |
